Measurements reported in PubChem BioAssay AID588780 (Sanford-Burnham Center for Chemical Genomics, 2011).
Active and inactive are the calls of the source.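 Rule for the calls: active = compounds whose fitted half-maximal concentration in the cell-protection dose series is at or below a set limit; inactive = the rest.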

System: H9c2 cardiomyocytes, 2-deoxyglucose stress, ATP luminescence, 2 h
Assay: protection of cardiomyocytes from 2-deoxyglucose injury, dose response, cell-based, 2-deoxyglucose stress, uHTS hits (AID 588780)

| Structure (SMILES) | IC50 |
| --- | --- |
| COc1cc(-c2cc(NC(C)=O)c3ncc(-c4ccc(F)cc4)n3c2)cc(OC)c1OC | > 79 µM (inactive) |
| O=C(Nc1nc(-c2ccc(S(=O)(=O)N3CCCC3)cc2)cs1)C1COc2ccccc2O1 (configuration not stated) | > 79 µM (inactive) |
| O=C(NCC(=O)N(Cc1cccs1)C(C(=O)NC1CCCC1)c1ccco1)c1cccs1 (configuration not stated) | 13.3 µM |
| O=c1cc(CSc2nc3ccccc3c(=O)[nH]2)c2ccc(O)cc2o1 | > 79 µM (inactive) |
| COc1ccc2c(c1)C(=O)[C@@H](O)[C@H](c1ccc(OC)c(Br)c1)O2 | 5.76 µM |
| COc1cc(/C=C/C(=O)OCC(=O)N2c3ccccc3NC(=O)C2(C)C)cc(OC)c1OC | > 79 µM (inactive) |
| O=C(CCn1nc(-c2ccccc2)c2ccccc2c1=O)N1CCN(c2ccccc2)CC1 | > 79 µM (inactive) |
| COc1ccc(NC(=O)C(OC(=O)c2ccc([N+](=O)[O-])o2)c2ccccc2)cc1Cl (configuration not stated) | > 79 µM (inactive) |
| COc1nnc(-c2ccc(C)c(S(=O)(=O)NCCO)c2)c2ccccc12 | > 79 µM (inactive) |
| COc1cc(NS(=O)(=O)c2ccc3ccccc3c2)c2ncccc2c1 | 18.2 µM |
| CCCN(CC(=O)Nc1ccc(F)c(F)c1F)C(=O)CCc1nc2ccccc2c(=O)[nH]1 | > 79 µM (inactive) |
| COc1cccc(C(c2nnnn2Cc2ccccc2)N2CCN(C3CCCC3)CC2)c1OC (configuration not stated) | 35.5 µM (inactive) |
| O=C(Nc1cccnc1)c1sc(Nc2ccccc2)nc1-c1ccccc1 | > 79 µM (inactive) |
| O=C(NCC(=O)N(Cc1ccccc1)C(C(=O)NC1CCCCC1)c1ccco1)c1ccco1 (configuration not stated) | 16.2 µM |
| CCN(CC(=O)Nc1c(F)cccc1F)C(=O)Cc1n[nH]c(=O)c2ccccc12 | > 79 µM (inactive) |
| Cc1cc(C)c(C)c(S(=O)(=O)N2CCN(C(=O)c3cc(=O)[nH]c4ccccc34)CC2)c1C | > 79 µM (inactive) |
| O=C(COC(=O)c1ccccc1C(=O)OCC(=O)NCCc1c[nH]c2ccccc12)NCCc1c[nH]c2ccccc12 | > 79 µM (inactive) |
| O=C(COC(=O)CCc1nc2ccccc2c(=O)[nH]1)Nc1c(Cl)cccc1C(F)(F)F | > 79 µM (inactive) |
| NNC(=O)c1cc2ccccc2cc1O | > 79 µM (inactive) |
| CCOC(=O)N1CCc2c(sc(NC(=O)CN3CCOCC3)c2C(=O)Nc2ccccc2)C1 | 54.6 µM (inactive) |
| COc1ccc(CCNc2nc(-c3cccnc3)nc3ccccc23)cc1OC | > 79 µM (inactive) |
| COC(=O)c1[nH]c2ccccc2c1NC(=O)CNC1CCCCC1 | > 79 µM (inactive) |
| O=C(NCCN1CCOCC1)c1cnn2c(-c3ccccc3)cc(-c3ccccc3)nc12 | 18.5 µM |

| Structure (SMILES) | IC50 |
| --- | --- |
| COc1cc(/C=C(\C#N)C(=O)Nc2ccccc2)ccc1OCCN1CCOCC1 | 28.4 µM |
| CCOc1ccc(C(=O)Nc2cccc(-c3nc4cccnc4o3)c2)cc1Cl | 32.2 µM (inactive) |
| CCC(C)N1C(=O)S/C(=C/c2ccc3c(c2)n(C)c(=O)n3C)C1=O (configuration not stated) | > 79 µM (inactive) |
| O=C(CCc1nc2ccccc2c(=O)[nH]1)N1CCN(S(=O)(=O)c2ccccc2Br)CC1 | > 79 µM (inactive) |
| Cc1nn(-c2ccccc2)c(Cl)c1C(=O)NNC(=O)c1ccccc1O | > 79 µM (inactive) |
| COc1nc(N/N=C/c2cc3c(cc2Br)OCO3)nc(N2CCOCC2)n1 | 15.7 µM |
| COc1ccc(C(=O)COC(=O)Cn2[nH]c(=O)c3ccccc3c2=O)c(OC)c1 | > 79 µM (inactive) |
| CN(C)C(=O)/C=C\c1cn(-c2ccccc2)nc1-c1ccc2c(c1)OCCO2 | > 79 µM (inactive) |
| CC(=O)c1cccc(NC(=O)C(C)OC(=O)CCc2nc3ccccc3c(=O)[nH]2)c1 (configuration not stated) | > 79 µM (inactive) |
| CC(C)(C)C(=O)Nc1ccc(C(=O)N/N=C/c2ccccc2OC(=O)c2ccccc2)cc1 | > 79 µM (inactive) |
| COc1ccc(NC(=S)N(Cc2cccnc2)Cc2cc3cc(OC)c(OC)cc3[nH]c2=O)cc1 | > 79 µM (inactive) |
| O=C(Nc1nc2ccccc2n1Cc1ccccc1)c1ccco1 | 14.7 µM |
| CCN(CC)CCn1c2c(c(SCC(=O)Nc3cccc(C(C)=O)c3)nc1=O)CCCC2 | 13.1 µM |
| CC(C)(C)OC(=O)C[C@@H]1C/C=C\C[C@@H](CC(=O)N[C@@H](CO)Cc2ccccc2)C(=O)NC[C@@H](c2ccccc2)OC1=O | 11.9 µM |
| Cc1ccc(C=NNc2nc3c([nH]2)c(=O)n(C)c(=O)n3C)cc1 | 11.8 µM |
| O=C(CCCn1c(SCC(=O)c2ccc(O)c(O)c2)nc2ccccc2c1=O)NCC1CCCO1 (configuration not stated) | 38.7 µM (inactive) |
| CCOC(=O)Cc1c(C)nc2c(-c3ccc(Cl)cc3)c[nH]n2c1=O | > 79 µM (inactive) |
| O=C(CNC(=O)c1ccccc1F)N/N=C/c1cc(Br)ccc1OC(=O)/C=C/c1ccco1 | > 79 µM (inactive) |
| CCOc1ccc(/C=C/C(=O)c2cc(Br)ccc(=O)c2O)cc1 | > 79 µM (inactive) |
| Cc1cc(Cl)ccc1OCCCC(=O)NNC(=O)c1ccccc1O | > 79 µM (inactive) |
| COc1ccc(-c2oc3c(OC)c(OC)c(OC)c(O)c3c(=O)c2OC)cc1OC | > 79 µM (inactive) |
| Cc1cc(C)c2ccc(N)nc2c1O | > 79 µM (inactive) |
| COc1cc(/C=N/NC(=O)c2ccccc2)ccc1OS(=O)(=O)c1ccccc1 | 9.14 µM |

| Structure (SMILES) | IC50 |
| --- | --- |
| COc1ccc(OC)c(NC(=O)c2sc3ncnc(N4CCN(c5ccccn5)CC4)c3c2C)c1 | > 79 µM (inactive) |
| CCCc1cc(=O)oc2c(CNc3ccc(OCC)cc3)c(O)ccc12 | 17.4 µM |
| O=C(c1cc(=O)[nH]c2ccccc12)N1CCN(S(=O)(=O)c2ccc(Cl)cc2)CC1 | > 79 µM (inactive) |
| CC(C)CC(=O)Nc1ccc(C(=O)COC(=O)Cc2n[nH]c(=O)c3ccccc23)cc1 | > 79 µM (inactive) |
| O=C(N/N=C/c1ccccn1)c1cc(-c2ccc(Cl)s2)[nH]n1 | > 79 µM (inactive) |
| O=C(CCc1nc2ccccc2c(=O)[nH]1)OCC(=O)N1CCc2ccccc21 | > 79 µM (inactive) |
| N#CCSc1nc2cc(C(=O)N3CCC(C(N)=O)CC3)ccc2c2nc3ccccc3n12 | 15 µM |
| CCOC(=O)C1=NN(C(=O)c2ccco2)C2(CC2)C1 | > 79 µM (inactive) |
| O=C(N/N=C/c1ccccn1)c1cc(-c2cccc3ccccc23)n[nH]1 | > 79 µM (inactive) |
| COc1ccc(/C=N/NC(=O)c2ccn[nH]2)cc1COc1ccc(Cl)cc1 | > 79 µM (inactive) |
| CN(C)S(=O)(=O)c1ccc2[nH]cc(/C=C/c3nc4ccccc4c(=O)n3-c3ccccc3)c2c1 | > 79 µM (inactive) |
| Cc1cc(Br)cc(C=Nc2ccc(N3CCOCC3)cc2)c1O | 58.4 µM (inactive) |
| COCCn1nnnc1CN(CCc1ccccc1)Cc1cc2cc(OC)ccc2[nH]c1=O | > 79 µM (inactive) |
| COC(=O)c1cc2c(C)c(C)c3ccccn3c-2c1C(=O)OC | > 79 µM (inactive) |
| CCOc1ccc2[nH]c(=O)c(CN(CCO)C(c3nnnn3C3CCCCC3)C(C)C)cc2c1 (configuration not stated) | > 79 µM (inactive) |
| COc1ccc(COc2cc(-c3cccc(OC)c3)nc3ccc(NC(=O)c4ccc(OC)cc4)cc23)cc1 | 5.3 µM |
| CCC(=O)N1CCN(c2ccccc2NC(=O)COc2cc(C)ccc2C(C)C)CC1 | 11.5 µM |
| COc1ccc(NC(=O)CN(C)C(=O)Cc2n[nH]c(=O)c3ccccc23)cc1 | > 79 µM (inactive) |
| COc1ccc(-c2cc(C(=O)Nc3ccccc3N3CCOCC3)c3ccccc3n2)cc1OC | > 79 µM (inactive) |
| COC(=O)Oc1ccc(/C=C/C(=O)OC(C)C)cc1OC(=O)OC | 63.1 µM (inactive) |
| O=C1NC(=O)c2c(Br)c(Br)c(Br)c(Br)c21 | > 79 µM (inactive) |
